# Measured values as given in patent publication US8129396B2, “2-[1H-benzimidazol-2(3H)-ylidene]-2-(pyrimidin-2-yl)acetamides and 2-[benzothiazol-2(3H)-ylidene]-2-(pyrimidin-2-yl)acetamides as kinase inhibitors” (Telik, Inc., priority 2008, dated 2012).
# Assays:
# [1] = target: T1, Aurora B kinase (Homo sapiens, UniProt Q96GD4); assay: Aurora B kinase assay (IMAP fluorescence polarization); assay type: biochemical; conditions: 10 μM ATP; rounded to 1 significant figure; read-out: Aur-B IC50
# T1 construct: purchased BPS Bioscience
# Description: (§1) The cell lines HL60 (human promyelocytic leukemia) and HCT116 (human colon carcinoma) were obtained from the American Type Culture Collection, Manassas, Va., U.S.A., and HUVEC-2 (human umbilical vein endothelial cells) from BD Biosciences, Bedford, Mass., U.S.A. Aurora A kinase was obtained from Upstate Biotech, Billerica, Mass., U.S.A.; Aurora B kinase from BPS Bioscience, San Diego, Calif., U.S.A.; and VEGFR2 kinase from Cell Signaling Technology, Danvers, Mass., U.S.A. The IMAP FP Screening Express kit was obtained from Molecular Devices, Sunnyvale, Calif., U.S.A.; the CellTiter-Glo assay kit from Promega Corporation, Madison, Wis., U.S.A.; and the Cellular DNA Cytometric Analysis Reagent Kit and BrdU labeling and detection kit from Roche Diagnostics Corporation, Indianapolis, Ind., U.S.A. All products were used in accordance with manufacturer's directions. Kinase inhibition assays and the histone phosphorylation (p-H3) assay were conducted in duplicate, and the cytotoxicity and HUVEC proliferation assays were conducted in triplicate, in each case with solvent control.
# (§2) The kinase reaction was initiated by adding 100 nM fluorescein labeled PKAtide and 10 μM adenosine triphosphate (ATP), and allowed to continue for 45 min at room temperature, after which it was stopped by adding binding reagent (1:400 dilution in binding buffer A). After 30 min of room temperature incubation with shaking, the fluorescence polarization was measured on a LJL plate reader. Aurora B kinase assay: performed as for the Aurora A kinase assay, but using Aurora B kinase instead of Aurora A kinase.
# [2] = target: T2, Aurora A kinase (Homo sapiens, UniProt O14965); assay: Aurora A kinase assay (IMAP fluorescence polarization); assay type: biochemical; conditions: 10 μM ATP; rounded to 1 significant figure; read-out: Aur-A IC50
# T2 construct: purchased Upstate Biotech
# T2 sequence (O14965 1-403): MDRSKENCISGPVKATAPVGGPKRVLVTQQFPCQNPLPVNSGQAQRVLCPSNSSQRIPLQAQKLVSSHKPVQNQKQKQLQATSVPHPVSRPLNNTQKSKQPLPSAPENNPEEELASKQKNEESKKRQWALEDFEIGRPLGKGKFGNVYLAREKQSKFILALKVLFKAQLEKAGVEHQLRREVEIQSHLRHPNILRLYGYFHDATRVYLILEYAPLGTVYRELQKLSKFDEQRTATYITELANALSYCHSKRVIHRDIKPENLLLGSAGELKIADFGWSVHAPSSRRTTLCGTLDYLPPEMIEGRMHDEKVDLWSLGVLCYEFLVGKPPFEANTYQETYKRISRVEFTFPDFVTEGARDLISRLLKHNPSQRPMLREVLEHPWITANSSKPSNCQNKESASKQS
# Description: as §1
# as §2, with “Aurora A kinase assay: the test compounds were diluted in dimethylsulfoxide (DMSO, eight concentrations with serial 3-fold dilutions) and incubated (final DMSO concentration 2.5%) with Aurora A kinase at room temperature for 5 min in kinase reaction buffer with 1 mM dithiothreitol (IMAP FP Screening Express). The” for “The”
# [3] = system: p-H3 in HCT116 cells; assay: Histone phosphorylation (p-H3) assay; assay type: cell-based; conditions: Homo sapiens, HCT-116; HCT116 cells, 4 hr incubation; read-out: p-H3 IC50
# Description: as §1
# Log phase HCT116 cells were seeded at 2.5×10^4 cells/well in a 96-well plate and allowed to attach overnight. The test compounds were diluted in DMSO (8 concentrations with serial 3-fold dilutions) and added to the cells (0.5% DMSO final concentration), and the cells incubated for 4 hr. The cells were then washed three times with cold phosphate-buffered saline (PBS), and lysis buffer was added. After 30 min shaking at 4° C. and centrifugation, the supernatants were transferred to a nitrocellulose membrane by a “dot-blot” apparatus. After washing the wells, the membrane was processed for Western blot. Detection of p-H3 and β-actin was performed on the same membrane with primary rabbit anti-p-H3 and mouse anti-β-actin antibodies followed by secondary goat anti-rabbit IRDye800 and goat anti-mouse AlexaFluor 680 antibodies. The membranes were scanned on an Odyssey scanner.
# [4] = system: HCT116 (human colon carcinoma) cells; assay: HCT116 cytotoxicity assay (CellTiter-Glo); assay type: cell-based; conditions: HCT-116, 72 h, cytotoxicity, three days culture, read-out: HCT116 IC50
# Description: as §1
# Log-phase cells were trypsinized, collected by centrifugation, and resuspended in a small volume of fresh medium, and the density of viable cells was determined following Trypan Blue staining. Cells were diluted in fresh media (1×10^4 cells/mL for HL60 and 4×10^4 cells/mL for HCT116 cells), the test compounds (concentrations between 0.1 μM and 200 μM, dissolved in DMSO, 50 μL) added immediately after dilution to achieve a final DMSO concentration of 0.5%, then the suspensions added at 150 μL/well to 96-well plates, and incubated overnight to allow attachment in the case of adherent cells. The cells were cultured for three days (about three doubling times). The cells were then collected by centrifugation, and 100 μL of the culture supernatant was replaced by the CellTiter-Glo reagent. After incubation for 15 minutes at room temperature, the plate was read with a luminometer.
# [5] = target: T3, VEGFR2 kinase (Homo sapiens, UniProt P35968); assay: VEGFR2 kinase assay; assay type: biochemical; conditions: 6 μM ATP, 1 mM MnCl2; rounded to 1 significant figure
# T3 construct: purchased Cell Signaling Technology
# Description: as §1
# This assay was performed as for the Aurora A kinase assay, using VEGFR2 kinase, CSKtide as the substrate with 6 μM ATP and 1 mM MnCl2, a kinase reaction time of 1 hr, and dilution of the binding reagent 1:1200 in binding buffer A/binding buffer B (1:1).
# T3 sequence (P35968 20-1356): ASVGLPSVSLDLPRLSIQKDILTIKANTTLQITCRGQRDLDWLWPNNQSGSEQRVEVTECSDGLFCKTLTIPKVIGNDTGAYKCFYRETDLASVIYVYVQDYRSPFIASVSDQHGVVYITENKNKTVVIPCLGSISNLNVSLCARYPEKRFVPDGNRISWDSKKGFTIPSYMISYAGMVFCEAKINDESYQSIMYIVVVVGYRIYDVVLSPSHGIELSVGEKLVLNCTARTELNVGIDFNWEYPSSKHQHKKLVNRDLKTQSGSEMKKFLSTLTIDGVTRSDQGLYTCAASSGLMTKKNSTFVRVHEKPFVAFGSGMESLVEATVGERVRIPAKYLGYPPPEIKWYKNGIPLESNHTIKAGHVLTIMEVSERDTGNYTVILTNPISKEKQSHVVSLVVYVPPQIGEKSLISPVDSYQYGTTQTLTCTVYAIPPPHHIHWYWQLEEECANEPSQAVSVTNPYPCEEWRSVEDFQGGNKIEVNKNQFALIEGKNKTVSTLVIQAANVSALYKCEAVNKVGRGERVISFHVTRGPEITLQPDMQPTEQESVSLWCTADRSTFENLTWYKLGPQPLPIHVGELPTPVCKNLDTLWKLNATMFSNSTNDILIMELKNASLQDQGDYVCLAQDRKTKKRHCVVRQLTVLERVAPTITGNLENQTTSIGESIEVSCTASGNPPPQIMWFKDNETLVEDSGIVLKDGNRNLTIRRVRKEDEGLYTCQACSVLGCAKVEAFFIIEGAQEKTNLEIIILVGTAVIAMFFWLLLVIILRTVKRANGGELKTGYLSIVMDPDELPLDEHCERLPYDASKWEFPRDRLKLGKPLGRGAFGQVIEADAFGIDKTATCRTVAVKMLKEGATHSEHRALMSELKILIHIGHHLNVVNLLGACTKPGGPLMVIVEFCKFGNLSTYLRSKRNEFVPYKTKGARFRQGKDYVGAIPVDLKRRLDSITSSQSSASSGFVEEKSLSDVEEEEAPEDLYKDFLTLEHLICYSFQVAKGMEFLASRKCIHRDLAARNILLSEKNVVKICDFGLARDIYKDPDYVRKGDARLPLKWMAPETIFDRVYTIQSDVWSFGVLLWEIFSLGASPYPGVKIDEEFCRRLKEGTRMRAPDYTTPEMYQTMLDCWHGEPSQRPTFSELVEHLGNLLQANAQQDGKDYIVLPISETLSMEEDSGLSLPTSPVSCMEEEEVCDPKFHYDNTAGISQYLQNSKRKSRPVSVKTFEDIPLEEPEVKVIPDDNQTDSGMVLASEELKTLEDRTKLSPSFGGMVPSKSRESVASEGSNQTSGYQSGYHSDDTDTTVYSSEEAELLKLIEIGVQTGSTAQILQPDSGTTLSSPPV
# T1 sequence (Q96GD4 whole entry): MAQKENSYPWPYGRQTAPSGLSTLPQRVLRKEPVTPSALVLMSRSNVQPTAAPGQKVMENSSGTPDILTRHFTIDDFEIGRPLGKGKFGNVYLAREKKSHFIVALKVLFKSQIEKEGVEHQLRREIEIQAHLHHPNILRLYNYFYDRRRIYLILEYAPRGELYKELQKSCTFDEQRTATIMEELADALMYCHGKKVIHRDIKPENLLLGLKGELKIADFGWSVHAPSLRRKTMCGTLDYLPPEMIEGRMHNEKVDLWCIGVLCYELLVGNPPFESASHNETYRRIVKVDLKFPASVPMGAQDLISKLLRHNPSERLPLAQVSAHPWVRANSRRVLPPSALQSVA
IC50 [1],IC50 [2],IC50 [3],IC50 [5],SMILES,IC50 [4]
8 nM,6 nM,,,Cn1cncc1CCc1ccc2c(c1)S/C(=C(/C(N)=O)c1nccc(C(F)(F)F)n1)N2 [Compound 98A],
7 nM,5 nM,100 nM,,NC(=O)/C(=C1\Nc2ccc(CCO)cc2N1)c1nccc(C(F)(F)F)n1 [Compound 105A],
30 nM,80 nM,2000 nM,40 nM,NC(=O)/C(=C1\Nc2ccccc2S1)c1nc(NCCN2CCOCC2)cc(C(F)(F)F)n1 [Compound 137A],2000 nM
10 nM,30 nM,> 5000 nM,100 nM,COC(=O)c1ccc2c(c1)N/C(=C(/C(N)=O)c1nccc(C(F)(F)F)n1)N2 [Compound 29A],200 nM
30 nM,50 nM,> 50000 nM,80 nM,NC(=O)/C(=C1\Nc2ccccc2S1)c1nc(OCCN2CCOCC2)cc(C(F)(F)F)n1 [Compound 14A],8000 nM
10 nM,80 nM,2000 nM,200 nM,Cc1cc(C)nc(/C(C(N)=O)=C2/Nc3ccccc3S2)n1 [Compound 22A],10000 nM
30 nM,400 nM,> 50000 nM,,Cc1ccnc(C(C(N)=O)=C2Nc3ccccc3N2)n1 [Compound 19A],20000 nM
1000 nM,900 nM,,400 nM,Cc1cc(C(=O)O)nc(/C(C(N)=O)=C2/Nc3ccccc3S2)n1 [Compound 24A],> 50000 nM
10 nM,10 nM,1000 nM,8 nM,NC(=O)/C(=C1\Nc2ccc(C(=O)N(CCO)CCO)cc2N1)c1nccc(C(F)(F)F)n1 [Compound 30A],
100 nM,200 nM,> 50000 nM,1000 nM,"NC(=O)C(=C1Nc2ccc([N+](=O)[O-])cc2S1)c1nccc(C(F)(F)F)n1 (single isomer, unassigned) [Compound 26A, 2-[6-nitrobenzothiazol-2(3H)-ylidene]-2-(4-trifluoromethylpyrimidin-2-yl)acetamide]",20000 nM
10 nM,60 nM,1000 nM,4 nM,NC(=O)/C(=C1\Nc2ccc(C(=O)NC3CCNCC3)cc2N1)c1nccc(C(F)(F)F)n1 [Compound 70A],600 nM
10 nM,6 nM,,,CCN(C(=O)c1ccc2c(c1)N/C(=C(/C(N)=O)c1nccc(C(F)(F)F)n1)N2)c1cccnc1 [Compound 43A],
100 nM,200 nM,,1000 nM,CCc1cnc(/C(C(N)=O)=C2/Nc3ccccc3S2)nc1 [Compound 21A],20000 nM
40 nM,100 nM,2000 nM,90 nM,NC(=O)/C(=C1\Nc2ccc(N3CCC(N)C3)cc2S1)c1nccc(C(F)(F)F)n1 (centres unmarked) [Compound 123A],4000 nM
20 nM,30 nM,400 nM,7 nM,NCCCNC(=O)c1ccc2c(c1)S/C(=C(/C(N)=O)c1nccc(C(F)(F)F)n1)N2 [Compound 65A],200 nM
40 nM,30 nM,> 5000 nM,200 nM,NC(=O)/C(=C1/Nc2cc(F)cc(F)c2N1)c1nccc(C(F)(F)F)n1 [Compound 36A],4000 nM
10 nM,4 nM,> 40000 nM,30 nM,COC(=O)c1cnc(C(C(N)=O)=C2Nc3ccccc3N2)nc1C(F)(F)F [Compound 4A],2000 nM
60 nM,60 nM,> 50000 nM,100 nM,NC(=O)/C(=C1\Nc2cccc(C(=O)NCCCN3CCOCC3)c2S1)c1nccc(C(F)(F)F)n1 [Compound 52A],1000 nM
9 nM,3 nM,1000 nM,10 nM,NC(=O)/C(=C1\Nc2ccc(C(=O)O)cc2S1)c1nccc(C(F)(F)F)n1 [Compound 27A],7000 nM
5 nM,9 nM,600 nM,20 nM,NC(=O)/C(=C1\Nc2ccc(CO)cc2N1)c1nccc(C(F)(F)F)n1 [Compound 35A],200 nM
10 nM,20 nM,20000 nM,90 nM,COC(=O)c1cnc(/C(C(N)=O)=C2/Nc3ccccc3S2)nc1C(F)(F)F [Compound 3A],3000 nM
40 nM,200 nM,2000 nM,500 nM,Cc1ccnc(/C(C(N)=O)=C2/Nc3ccccc3S2)n1 [Compound 18A],20000 nM
6 nM,70 nM,8000 nM,100 nM,COC(=O)c1cc(C)nc(/C(C(N)=O)=C2/Nc3ccccc3S2)n1 [Compound 23A],50000 nM
7 nM,4 nM,50 nM,,NC(=O)/C(=C1\Nc2ccc(CCN3CCOCC3)cc2N1)c1nccc(C(F)(F)F)n1 [Compound 102A],
20 nM,50 nM,900 nM,10 nM,NCCCNC(=O)c1ccc2c(c1)N/C(=C(/C(N)=O)c1nccc(C(F)(F)F)n1)N2 [Compound 64A],2000 nM
100 nM,200 nM,> 50000 nM,400 nM,NC(=O)/C(=C1\Nc2ccc(I)cc2S1)c1nccc(C(F)(F)F)n1 [Compound 25A],10000 nM
